AC35 data for 6 compounds are collected here from PubChem BioAssay AID743470 (Broad Institute, 2014).

Inconclusive results are not listed.

This test relates to HEK293T viability, CellTiter-Glo ATP luminescence, 72 h. The test is described as follows: viability loss in HEK293 cells – cell-based, luminescence, dry powder, set 15, cytotoxicity control, dose response (AID 743470).

Turning to `COc1ccc(-c2cc(NC=O)c3ncc(-c4ccc(OC)c(OC)c4)n3c2)cc1`, the AC35 is 5.61 µM.
For `COc1ccc(C2=Nn3c(nnc3-c3ccccc3Cl)SC2)cc1OC`, the AC35 was 6.79 µM.
To `CCOC(=O)CCNc1cc(N2CCc3ccccc3CC2)nc(-c2ccccn2)n1` belongs 9.37 µM; to `CN(C)c1ccc2c(c1)OC(N)=C(C#N)C2c1cccc(F)c1` (stereo unspecified), 0.586 µM.
Then `Cc1cc(Nc2cc(N3CCN(C)CC3)nc(Sc3ccc(NC(=O)C4CC4)cc3)n2)n[nH]1`, with 3.09 µM; and `CC1(C)CC(c2nc(-c3ccc4ccc(-c5ccccc5)nc4c3)c3c(N)nccn23)C1`, with 4.66 µM.
